Here are results for two compounds from patent US11046954B2, “Targeted protein degradation to attenuate adoptive T-cell therapy associated adverse inflammatory responses” (Dana-Farber Cancer Institute, Inc., priority 2015, dated 2021).

Common to all, as to type: cell-based
Assay [1] has as its target T1, FKBP* (Homo sapiens, UniProt P62942, F37V).
T1 construct: HA; expressed in transfected cells; host or cells: 293FT cells (CRBN-WT or CRBN-/-)
The assay can be described thus: Immunoblot of 293FT cells (CRBN-WT or CRBN−/−) expressing HA-tagged FKBP*. The conditions noted are these: for degradation of FKBP*: 100 nM. As to the method:
(§1) FIG. 6 is an immunoblot of cells treated with bi-functional molecules described in the present invention. 293FT cells (CRBN-WT or CRBN−/−) expressing either HA-tagged FKBP12WT or FKBP* (also referred to as dFKBP12* herein) were treated with indicated concentrations of dFKBP7 for 4 hours.
(§2) Isogenic 293FT cells (CRBN-WT or CRBN−/−) expressing either FKBP12WT or FKBP* were treated with 100 nM of either dFKBP7 or dFKBP13 for 4 hours.
Isogenic 293FT cells (CRBN-WT or CRBN−/−) expressing HA-tagged FKBP* were treated with the indicated dose of dFKBP13 for 4 hours.
293FT cells (CRBN-WT) expressing HA-tagged FKBP* were treated with 100 nM dFKBP13 for the indicated times. Cells were harvested and protein lysates immunoblotted to measure the kinetics of HA-tagged FKBP* degradation induced by dFKBP13.
The dTAG is predicated on the selectivity of FKBP* specific ligands over endogenous, wild type FKBP. In 293 T cells expressing wild type FKBP 12 or FKBP*, dFKBP7 induces targeted degradation only in FKBP* expressing cells. An immunoblot of cells treated with bi-functional molecules described in the present invention was performed. 293FT cells (CRBN-WT or CRBN−/−) expressing either HA-tagged FKBP12WT or FKBP* were treated with indicated concentrations of dFKBP7 for 4 hours.
In 293T cells expressing wild type FKBP12 or FKBP*, treatment with dFKBP7 and dFKBP13 induces targeted degradation only in FKBP* expressing cells. Isogenic 293FT cells (CRBN-WT or CRBN−/−) were engineered to express either FKBP12WT or FKBP*. Cells were treated with 100 nM of either dFKBP7 or dFKBP13 for 4 hours before lysates were prepared for western immunoblot analysis.
In an effort to define the optimal concentration of dFKB13 heterobifunctional compounds to induce degradation of FKBP*, degradation was measured upon treatment with increasing concentrations of dFKBP13. Isogenic 293FT cells (CRBN-WT or CRBN−/−) were engineered to expressed HA-tagged FKBP*. Cells were treated with the indicated dose of dFKBP13 for 4 hours before lysates were prepared for western immunoblot analysis.
To evaluate the kinetic control of targeted degradation FKBP*, dFKBP13 was administered by increased duration. 293FT cells (CRBN-WT) were engineered to express HA-tagged FKBP*. Cells were treated with 100 nM dFKBP13 for the indicated times. Cells were harvested and protein lysates immunoblotted to measure the kinetics of HA-tagged FKBP* degradation induced by dFKBP 13.
Background: Immunoblotting shows a protein as a band on a membrane.

The subject of assay [2] is FKBP*-KRASG12V. The assay can be described thus: Immunoblot of NIH3T3 cells expressing FKBP* fused to KRASG12V: degradation. As to the method:
FIG. 19 is an immunoblot of NIH3T3 cells expressing KRASG12V allele fused to FKBP* in the N-terminus or C-terminus. Cells were treated with 500 nM dFKBP7 for the indicated time. Cells were harvested and immunoblotted to measure degradation of FKBP*-KRASG12V and downstream surrogates of KRAS signaling (e.g. pMEK and pAKT).
FIG. 20 is an immunoblot of NIH3T3 cells expressing FKBP* fused to the N-terminus of KRASG12V treated with luM of the indicated dFKBP heterobifunctional compounds for 24 hours. Cells were harvested and immunoblotted to measure degradation of FKBP*-KRASG12V and downstream surrogates of KRAS signaling (e.g. pMEK and pAKT).
FIG. 21 is an immunoblot of NIH3T3 cells expressing FKBP* fused to the N-terminus of KRASG12V treated with the indicated concentrations of dFKBP13 for 24 hours. Cells were harvested and immunoblotted to measure degradation of FKBP*-KRASG12V and downstream surrogates of KRAS signaling (e.g. pMEK and pAKT).
FIG. 22 is an immunoblot of NIH3T3 cells expressing FKBP* fused to the N-terminus of KRASG12V treated with luM dFKBP13 for the indicated time. Cells were harvested and immunoblotted to measure degradation of FKBP*-KRASG12V and downstream surrogates of KRAS signaling (e.g. pMEK and pAKT).
Cells were treated with 500 nM dFKBP7 for the indicated time. Cells were harvested and immunoblotted to measure degradation of FKBP*-KRAS and downstream surrogates of KRAS signaling (e.g. pMEK and pAKT).
Western blotting of NIH3T3 cells expressing dTAG-KRASG12V were treated with 1 μM of the indicated dFKBP heterobifunctional compounds for 24 hours. Cells were harvested and immunoblotted to measure degradation of FKBP*-KRAS and downstream surrogates of KRAS signaling (e.g. pMEK and pAKT).
Western blotting of NIH3T3 cells expressing FKBP* fused to the N-terminus of KRAS treated with the indicated concentrations of dFKBP13 for 24 hours. Cells were harvested and immunoblotted to measure degradation of FKBP*-KRAS and downstream surrogates of KRAS signaling (e.g. pMEK and pAKT).
To evaluate the kinetic control of targeted degradation of dTAG-KRAS, dFKBP13 was administered by increased duration. Western blotting of NIH3T3 cells expressing FKBP* fused to the N-terminus of KRAS treated with 1 μM dFKBP13 for the indicated time. Cells were harvested and immunoblotted to measure degradation of FKBP*-KRAS and downstream surrogates of KRAS signaling (e.g. pMEK and pAKT).

In assay [3] the target is T2, FKBP12WT (Homo sapiens, UniProt P62942).
T2 construct: HA; expressed in transfected cells; host or cells: 293FT cells (CRBN-WT or CRBN-/-)
T2 sequence (P62942 whole entry): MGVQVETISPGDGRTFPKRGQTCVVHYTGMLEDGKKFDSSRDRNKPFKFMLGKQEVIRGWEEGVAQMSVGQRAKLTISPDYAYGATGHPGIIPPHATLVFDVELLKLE
Kind of assay: Immunoblot of 293FT cells (CRBN-WT or CRBN−/−) expressing FKBP12WT. To be noted: for degradation of FKBP12WT or endogenous FKBP12: isogenic 293FT CRBN-WT or CRBN−/−, 100 nM, 4 hours. On the procedure:
as §1, §2
The dTAG is predicated on the selectivity of FKBP* specific ligands over endogenous, wild type FKBP. […] An immunoblot of cells treated with bi-functional molecules described in the present invention was performed. 293FT cells (CRBN-WT or CRBN−/−) expressing either HA-tagged FKBP12WT or FKBP* were treated with indicated concentrations of dFKBP7 for 4 hours.
Isogenic 293FT cells (CRBN-WT or CRBN−/−) were engineered to express either FKBP12WT or FKBP*. Cells were treated with 100 nM of either dFKBP7 or dFKBP13 for 4 hours before lysates were prepared for western immunoblot analysis.

Where [4] appears, read: isogenic 293FT CRBN-WT or CRBN−/−, 4 hours.
Where [5] appears, read: 293FT CRBN-WT or CRBN−/−, indicated concentrations of dFKBP7, 4 hours.

The structures appear in SMILES notation. Entries after “also recorded” stand apart in the source; their conditions may differ.

T1 sequence (P62942 whole entry F37V): as the sequence (P62942 whole entry) above, with F37V counted along it

Turning to `CC[C@H](C(=O)N1CCCC[C@H]1C(=O)O[C@H](CCc1ccc(OC)c(OC)c1)c1cccc(OCC(=O)NCCCCCCOc2cccc3c2C(=O)N(C2CCC(=O)NC2=O)C3=O)c1)c1cc(OC)c(OC)c(OC)c1` (some centres unmarked) [dFKBP13], the “degradation of FKBP*” value in assay [1] (setting [4]) is given as “CRBN-dependent degradation of FKBP*”. Moreover, in assay [1] (isogenic 293FT CRBN-WT or CRBN−/−, indicated dose, 4 hours), the “degradation of HA-tagged FKBP*, dose dependence” value is “dose- and CRBN-dependent degradation”. The “time at which degradation of FKBP*-KRASG12V and inhibition of downstream signaling are seen” value in assay [2] (1 μM dFKBP13, indicated time) was no more than 1 h. The “degradation of FKBP*-KRASG12V” value in assay [2] (1 μM, 24 hours) is “potent degradation”; in assay [2] (indicated concentrations of dFKBP13, 24 hours), “potently degrades dTAG-KRAS at nanomolar concentrations; also recorded: potent degradation”. Also, the “degradation of FKBP12WT or endogenous FKBP12” value in assay [3] is on record as “not FKBP12WT or endogenous FKBP12”.

Consider `CC[C@H](C(=O)N1CCCC[C@H]1C(=O)O[C@H](CCc1ccc(OC)c(OC)c1)c1cccc(OCC(=O)NCCCOCCOCCOCCCNC(=O)COc2cccc3c2C(=O)N(C2CCC(=O)NC2=O)C3=O)c1)c1cc(OC)c(OC)c(OC)c1` (some centres unmarked) [dFKBP7], for which the “degradation of HA-tagged FKBP*” value in assay [1] (setting [5]) is listed as “CRBN-dependent degradation of FKBP*”. Moreover, the “degradation of FKBP*” value in assay [1] (setting [4]) is on record as “CRBN-dependent degradation of FKBP*”. Moreover, the “degradation of FKBP*-KRASG12V” value in assay [2] (500 nM dFKBP7, indicated time, N-terminal fusion) was “potent degradation; also recorded: N-terminal FKBP* fusions are active and degraded”. For the same compound, the “degradation of HA-tagged FKBP12WT” value in assay [3] (setting [5]) is reported as “not FKBPWT”. For the same compound, the “degradation of FKBP12WT or endogenous FKBP12” value in assay [3] was “not FKBP12WT or endogenous FKBP12”.
